# Like-named read-outs stand apart in the source and are kept apart here.
# Experiments:
# [1] = system: P. berghei ookinete development
# HepG2 cells [2] = settings: HepG2; ref Miguel-Blanco et al 2017; cited from earlier work
# [3] = system: P. falciparum female gametocytes; design: method as in Miguel-Blanco et al 2017; settings: ref Miguel-Blanco et al 2017; read-out: Pf FGAA IC50; cited from earlier work
# [4] = system: 3D7-strain P. falciparum asexual parasites; assay: P. falciparum asexual growth inhibition assay (Pf GIA); type: cell-based, Plasmodium falciparum; settings: dose response confirmation; read-out: Pf asexual growth inhibition assays IC50
# Summary of the method: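 Read-out was lactate dehydrogenase activity measured by absorbance at 650 nm after freezing and thawing, against 50 μM chloroquine and DMSO controls. Before that, asexual 3D7 cultures (0.25% parasitemia, 2% hematocrit) had 72 h dose-response compound exposure at 37°C in 5% CO2/5% O2/90% N2; three independent replicates averaged.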
# HepG2 cells [5] = assay: HepG2 cytotoxicity assay
# Summary of the method: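 Percent inhibition derived from fluorescent viability readout, normalised to DMSO (negative) and 50 μM doxorubicin (positive). Compound incubation lasted 48 h at 37°C, 5% CO2, with 2,500 HepG2 cells/well in MEM plus 10% FBS and 1% NEAA.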
# [6] = system: P. falciparum female gametocytes; assay: P. falciparum female gametogenesis assay (Pf FGAA); settings: 1: YES; 0: NO; >10-fold selectivity over cytotox
# [7] = unified HepG2 cytotoxicity across the three screens
SMILES,IC50 [3],Is compound selective in assay? Pf FGAA active? [6],Unified cytotox (HepG2 cells [5]; [7]),further results
Cc1[nH]c(C)c(-c2ccc(CCc3ccc(F)cc3F)cc2)c(=O)c1Cl [TCMDC-135462],13.3 µM,,,"Is compound selective in assay? Pb ODA active? ([1]; 1: YES, 0: NO): 1 (1: YES); % inhibition, Replicate A ([1]; primary screen at 1 μM, replicate A): 91.00%; % inhibition, Replicate B ([1]; primary screen at 1 μM, replicate B): 103.90%; IC50 ([1]; read-out: Pb ODA IC50, this manuscript): 0.01 µM; IC50 ([1]; read-out: Pb Ookinete development assay IC50, dose response confirmation): 0.011 µM; HepG2 cytoxicity (Pf FGAA screen) (HepG2 cells [2]): >100 µM; IC50 [4]: 0.00253 µM; Unified cytotox (HepG2 cells [5]; HepG2 values of the three screens unified): 100.00 µM; IC50 (HepG2 cells [5]; read-out: HepG2 cytotoxicity assay IC50, dose response confirmation): 100 µM"
Clc1ccc(Nc2nc(NCc3ccccc3)nc(N/N=C/c3ccccn3)n2)cc1 [TCMDC-138557],0.26 µM,1 (1: YES),13.96 µM,
Cl.O=C(NCCCCN1CCC(c2ccc3c(c2O)CCCC3)CC1)c1ccc(NC(=O)c2ccc(Cl)cc2)cc1 [TCMDC-138645],1.49 µM,0 (0: NO),3.80 µM,
CC(C)(C)c1ccc(CNCCOc2ccc(Nc3nnc(-c4ccc(-c5ncc[nH]5)cc4)o3)c3ccccc23)cc1.O=C(O)C(F)(F)F [TCMDC-138667],0.62 µM,0 (0: NO),5.96 µM,
CCc1ccc(C2CCN(CCCCNC(=O)c3ccc(NC(=O)c4ccc(Cl)cc4)cc3)CC2)c(OCCO)c1 [TCMDC-138703],2.25 µM,0 (0: NO),5.37 µM,
COc1cc2nc(N3CCC(CNC(=O)c4ccc(-c5ccc(C(F)(F)F)cc5)cc4)CC3)nc(N)c2cc1OC [TCMDC-138716],0.85 µM,0 (0: NO),4.92 µM,
COc1cc2nc(N3CCC(CNC(=O)c4ccc(-c5ccc(Cl)cc5)cc4)CC3)nc(N)c2cc1OC [TCMDC-138718],0.89 µM,0 (0: NO),4.22 µM,
COC(=O)c1ccc(-c2ccc(C(=O)NCC3CCN(c4nc(N)c5cc(OC)c(OC)cc5n4)CC3)cc2)cc1 [TCMDC-138721],0.91 µM,0 (0: NO),6.10 µM,
O=C(NCCCCN1CCC(c2ccc3c(c2OCCN2CCCC2)CCCC3)CC1)c1ccc(-c2ccc(C(F)(F)F)cc2)cc1 [TCMDC-138768],1.98 µM,0 (0: NO),5.39 µM,
O=C(Nc1ccc(-c2ccccc2)c(OCCN2CCNCC2)c1)c1ccc(-c2ccc(Cl)cc2)cc1 [TCMDC-138818],1.38 µM,0 (0: NO),4.95 µM,
O=C(NC1CCN(CCN2CCC(c3c[nH]c4ccccc34)CC2)CC1)c1ccc(-c2ccc(C(F)(F)F)cc2)cc1 [TCMDC-138845],1.8 µM,0 (0: NO),4.68 µM,
CC(C)Cn1cc(C2CCN(CCN3CCC(CNC(=O)c4ccc(-c5ccc(C#N)cc5)cc4)CC3)CC2)c2ccccc21 [TCMDC-138849],1.03 µM,0 (0: NO),4.79 µM,
CC(C)Cn1cc(C2CCN(CCN3CCC(CNC(=O)c4ccc(-c5ccc(C(F)(F)F)cc5)cc4)CC3)CC2)c2ccccc21 [TCMDC-138852],0.88 µM,0 (0: NO),4.80 µM,
O=C(NCC1CCN(CCN2CCC(c3cn(CCO)c4ccccc34)CC2)CC1)c1ccc(-c2ccc(C(F)(F)F)cc2)cc1 [TCMDC-138856],1.47 µM,0 (0: NO),2.69 µM,
O=C(O)C(F)(F)F.O=S(=O)(c1ccccc1)n1ccc2cc(Nc3ncnc4cc(C#C[C@H]5CCCN5)sc34)ccc21 [TCMDC-138913],1.17 µM,0 (0: NO),5.50 µM,
COc1cc2nc(-c3ccc(Br)cc3)cc(N)c2cc1OC [TCMDC-138933],0.76 µM,0 (0: NO),4.95 µM,
CCN1CCC2(c3cccc(OC)c3)Cc3nc4ccccc4c(-c4ccccc4)c3CC2C1 (stereo not shown) [TCMDC-138968],1.43 µM,1 (1: YES),33.25 µM,
COc1ccc(NC(=O)c2ccc(OCCCCCCCOc3ccc(C(=O)Nc4ccc(OC)c(N5CCN(C)CC5)c4)cc3)cc2)cc1N1CCN(C)CC1.O=C(O)C(=O)O [TCMDC-139007],1.41 µM,0 (0: NO),4.43 µM,

# From paper PMC6753678, “Fueling Open Innovation for Malaria Transmission-Blocking Drugs: Hundreds of Molecules Targeting Early Parasite Mosquito Stages” (Frontiers in Microbiology, 2019)
